Drawing on patent US6410528B1, “Morpholino ethers” (Glaxo Wellcome S.A., priority 1998, dated 2002), this text covers MIC, ED50 and LD50 for two compounds.

Converted amounts (≈) assume the structure as drawn.

Series [1] concerns C. pseudotropicalis 2371E. The series is described as follows: in vitro antifungal screen, MIC by two-fold serial dilution. The class given is cell-based, Candida pseudotropicalis. How it is done:
(§1) The antifungal activity of the compounds of formula (I) may be determined using conventional in vitro and in vivo screens. Thus, the in vitro evaluation of the anti-fungal activity of compounds of the invention was performed on liquid or solid medium by the anti-fungal two-fold serial dilution technique of determining the minimum inhibitory concentration (MIC) of anti-fungal agent that inhibited development of growth after 24 to 48 hours of incubation at 37° C. In practice, a series of agar plates or broth microdilution panels containing two-fold dilutions of anti-fungal agent tested were inoculated with a standard culture of a clinically relevant pathogen, for example, Candida albicans. The agar plates or broth microdulution panels were then examined for the presence or absence of growth of the fungus and the appropriate MIC values were noted.
(§2) Compounds of formula (I) have been tested for anti fungal activity in a standard in vitro screen and the minimum inhibiting concentration (MIC; μg/ml) determined for each compound against a variety of clinically relevant pathogens.

For a further series, the system named is C.albicans 4711E. The series is described as follows: system candidiasis test in mice. Format: in vivo. The settings on record: administered orally, system candidiasis test (C.albicans 4711E) in mice. How it is done:
The fungicidal activity of the compounds of formula (I) may also be determined in conventional tests in animals e.g. rats and mice. For example the lethal systems candidiasis test in mice.
(§3) The compounds of the invention are essentially non-toxic at therapeutically useful levels. For example, the compound of Example 2 when admistered orally in a system candidiasis test (C.albicans 4711E) in mice, has an ED50 value of 9.0 mg/kg. The LD50 value for the compound of example 2, in female mice is >300 mg/kg iv.

Another series concerns C. glabrata 2375E. The series is described as follows: in vitro antifungal screen, MIC by two-fold serial dilution. Format: cell-based, Candida glabrata. As to the method: as §1, §2
A further series has as its system C. glabrata 522. The description is as above. The class given is cell-based, Candida glabrata. How it is done: as §1, §2
Series [2] is described as follows: toxicity (LD50) in female mice. The class given is in vivo. The settings on record: iv. As to the method: as §3
For the next series, the system named is C. parapsilosis 2372E. The series is described as follows: in vitro antifungal screen, MIC by two-fold serial dilution. Format: cell-based, Candida parapsilosis. How it is done: as §1, §2
In the next series the test system is C. tropicalis 2808E. The description is as above. Format: cell-based, Candida tropicalis. How it is done: as §1, §2
The subject of a further series is C. albicans CL-236. The description is as above. Format: cell-based, Candida albicans. As to the method:
as §1, §2

For another series, the system named is C. albicans 4711E. Described as above. The class given is cell-based, Candida albicans. As to the method: as §1, §2

Turning to `C=CCN1CC(C)OC(OCC23CC4C(C)CCC4C4(C=O)CC2C=C(C(C)C)C43C(=O)O)C1` [Example 2, [1R-(1α,3aβ,4β,4aβ,7β, 7aα,8aβ)]8a-[(2R,6R)-(4-allyl-6-methyl-morpholin-2-yl)-oxymethyl]-4-formyl-4,4a,5,6,7,7a,8,8a-octahydro-7-methyl-3-(1-methylethyl)-1,4-methano-s-indacene-3a(1H)-carboxylic acid], the MIC in series [1] is 0.004 µg/mL (≈ 0.00848 µM); against C. glabrata 2375E, 0.5 µg/mL (≈ 1.06 µM); against C. glabrata 522, 0.5 µg/mL (≈ 1.06 µM); with C. parapsilosis 2372E, more than 125 µg/mL; with C. tropicalis 2808E, 0.03 µg/mL (≈ 0.0636 µM); with C. albicans CL-236, 0.03 µg/mL (≈ 0.0636 µM). The same compound yielded a minimal inhibitory concentration (MIC) in the series on C. albicans 4711E of 0.008 µg/mL (≈ 0.017 µM). Moreover, the ED50 in the series on C.albicans 4711E turned out to be 9.0 mg/kg. This compound also displayed a median lethal dose (LD50) in series [2] of more than 300 mg/kg.

Consider `C=CCN1C[C@H](OC[C@@]23C[C@@H]4[C@H](C)CC[C@H]4[C@@]4(C#N)C[C@@H]2C=C(C(C)C)[C@@]34C(=O)O)O[C@H](C)C1` [Example 25, [1R-(1α,3aβ,4β,4aβ,7β,7aα,8aβ)]8a-[(2R,6R)-(4-allyl-6-methyl-morpholin-2-yl)-oxymethyl]-4-cyano4,4a,5,6,7,7a,8,8a-octahydro-7-methyl-3-(1-methylethyl)-1,4-methano-s-indacene-3a(1H)-carboxylic acid], for which the minimal inhibitory concentration (MIC) in series [1] was 0.12 µg/mL (≈ 0.256 µM); against C. glabrata 2375E, 0.5 µg/mL (≈ 1.07 µM); with C. glabrata 522, 0.5 µg/mL (≈ 1.07 µM); in the series on C. parapsilosis 2372E it was more than 125 µg/mL; with C. tropicalis 2808E it was 0.5 µg/mL (≈ 1.07 µM); with C. albicans CL-236, 0.25 µg/mL (≈ 0.533 µM). Further, the minimal inhibitory concentration (MIC) with C. albicans 4711E turned out to be 0.25 µg/mL (≈ 0.533 µM).
